These results are taken from PMC8016788 (Clinical Pharmacokinetics, 2021).

Like-named read-outs stand apart in the source and are kept apart here.

Series [1] can be described thus: clinical. The settings on record: human, plasma, oral, 10 mg.
The conditions of series [2]: patients with type 2 diabetes and chronic kidney disease; model of van der Walt et al.; cited from earlier work.
For series [3] the following is noted: 10 mg.
For series [4], the system named is patients with non-diabetic kidney disease. The settings on record: primary result of the DIAMOND trial; cited from earlier work.

In series [1], `CCOc1ccc(Cc2cc([C@@H]3O[C@H](CO)[C@@H](O)[C@H](O)[C@H]3O)ccc2Cl)cc1` [dapagliflozin] registered an AUC(0-inf) of 741 ng·h/mL. In series [1], this molecule had a Vd/F of 44.9 L. Also, the Apparent clearance result in series [2] is on record as “approximately 10.5 L/h”. The “Predicted median AUC0–inf” value in series [3] (participants of 50 kg with mGFR 50 mL/min/1.73 m^2) is listed as 1100.3 (1016.1–1204.1) ng h/mL; in series [3] (participants of 70 kg with mGFR 15 mL/min/1.73 m^2), 1566.1 (1348.4–1855.4) ng h/mL; in series [3] (participants of 70 kg with mGFR 90 mL/min/1.73 m^2), 539.2 (483.5–600.4) ng h/mL; in series [3] (participants of 150 kg with mGFR 50 mL/min/1.73 m^2), 483.0 (445.5–527.8) ng h/mL. Also, the “Effect on proteinuria in the DIAMOND trial” value in series [4] is on record as “did not decrease proteinuria”.

The AUC(0-inf) is the area under the concentration-time curve extrapolated to infinity. What is called Vd/F is the volume of distribution divided by bioavailability.
